From PMC12169608, “Peptidomimetic Phenoxymethyl Ketone Warheads as Potent Dual-Mode Inhibitors against SARS-CoV‑2 M^pro and Cathepsin” (Journal of Medicinal Chemistry, 2025)
In brackets after ≈: the same amount, converted by molar mass. Where two headings read alike, the source gives them in different places.

Tests used:
[1] = biological target: mouse cathepsin L (mCTSL) (Mus musculus, UniProt P06797); assay: mCTSL biochemical assay
[2] = biological target: T1, human cathepsin L (hCTSL) (Homo sapiens, UniProt P07711); assay: hCTSL biochemical assay; details: for hCTSL inhibition, IC50 range in words: biochemical assay
T1 construct: purchased R&D Systems

SARS-CoV-2 M^pro = SARS-CoV-2 M^pro (Severe acute respiratory syndrome coronavirus 2, UniProt P0DTD1); assay: biochemical; assay type: biochemical; details: for M^pro inhibition, IC50 range in words: biochemical assay; for IC50: read-out: M^pro biochemical assay pIC50 (converted)
[3] = biological target: human cathepsin B (hCTSB) (Homo sapiens, UniProt P07858); assay: hCTSB biochemical assay
in vitro [4] = details: African green monkey
SARS-CoV-2 = assay: microbe, parasite or virus in culture; assay type: cell-based; details: for EC50: Severe acute respiratory syndrome coronavirus 2, Vero C1008, read-out: SARS-CoV-2 CPE reduction assay pEC50 (converted)
[5] = test system: luciferase-expressing VSV (ΔG) pseudotyped with Spike from SARS-CoV-2; assay: microbe, parasite or virus in culture; assay type: cell-based; details: Vesicular stomatitis virus, Vero C1008, read-out: Entry reporter assay pEC50 (converted)
physchem [6] = details: pH 7.4
in vitro [7] = details: mouse, hepatocytes; for hepatocyte CLint at 2 h, 2 µM: CLint (mouse hepatocytes)
in vitro [8] = details: mouse, plasma, mouse plasma protein binding
[9] = 3 h, 2 µM
[10] = microsomes, 10 µM, pH 7.4
physchem [11] = details: pH 7.4; remark: listed apart in the source
[12] = Mouse hepatocyte stability; details: mouse, cryopreserved hepatocytes
[13] = biological target: mouse cathepsin B (mCTSB) (Mus musculus, UniProt P10605); assay: mCTSB biochemical assay; details: read-out: pIC50 (mouse CTSB) (converted)
[14] = read-out: pIC50 (mouse CTSL) (converted)

Sequence of mouse cathepsin L (mCTSL) (P06797 114-334): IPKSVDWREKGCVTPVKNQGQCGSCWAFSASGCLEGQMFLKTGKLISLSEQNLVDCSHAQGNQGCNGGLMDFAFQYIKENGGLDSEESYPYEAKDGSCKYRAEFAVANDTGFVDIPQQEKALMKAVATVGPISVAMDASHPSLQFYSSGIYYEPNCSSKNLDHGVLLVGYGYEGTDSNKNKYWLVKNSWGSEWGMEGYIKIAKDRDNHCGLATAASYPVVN
T1 sequence (P07711 114-333): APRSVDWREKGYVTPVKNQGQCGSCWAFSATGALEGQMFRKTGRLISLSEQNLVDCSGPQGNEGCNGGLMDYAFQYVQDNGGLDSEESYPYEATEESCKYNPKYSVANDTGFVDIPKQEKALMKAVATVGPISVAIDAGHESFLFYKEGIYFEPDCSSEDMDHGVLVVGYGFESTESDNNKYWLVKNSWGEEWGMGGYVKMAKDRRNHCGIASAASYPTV
Sequence of mouse cathepsin B (mCTSB) (P10605 80-339): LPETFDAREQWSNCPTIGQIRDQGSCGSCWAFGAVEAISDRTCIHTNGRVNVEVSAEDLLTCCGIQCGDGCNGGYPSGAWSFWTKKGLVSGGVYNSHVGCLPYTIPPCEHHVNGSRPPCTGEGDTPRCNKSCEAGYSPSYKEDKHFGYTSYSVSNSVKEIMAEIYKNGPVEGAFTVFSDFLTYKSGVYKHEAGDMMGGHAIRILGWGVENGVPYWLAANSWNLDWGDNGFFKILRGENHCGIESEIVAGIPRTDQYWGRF

| SMILES | hCTSL biochemical assay pIC50 [2] | IC50 (SARS-CoV-2 M^pro) [nM] | hCTSB biochemical assay pIC50 [3] | IC50 [1, 14] [nM] | CC50 (in vitro [4]) [nM] | EC50 (SARS-CoV-2) [nM] | EC50 [5] [nM] | logD at 1 h (physchem [6]) | hepatocyte CLint at 2 h, 2 µM (in vitro [7]) [µL/min/1e6 cells] | fraction unbound at 3 h, 2 µM (in vitro [8]; fraction bound (Fb)) | fraction unbound at 3 h, 2 µM (in vitro [8]; fraction unbound (Fu)) | mouse plasma protein binding, fraction bound (Fb) [9] [%] | solubility kinetic at 24 h (physchem [11]) [µM] | other results |
| --- | --- | --- | --- | --- | --- | --- | --- | --- | --- | --- | --- | --- | --- | --- |
| CC(C)(C)[C@H](NC(=O)C(F)(F)F)C(=O)N1C[C@H]2[C@@H]([C@H]1C(=O)N[C@H](C#N)C[C@@H]1CCNC1=O)C2(C)C [Nirmatrelvir, reference compound] | – | – | – | – | – | – | – | – | – | – | – | – | – | IC50 [1]: > 50100 nM |
| COc1cccc2[nH]c(C(=O)N[C@H](Cc3cccc(F)c3)C(=O)N[C@@H](C[C@@H]3CCNC3=O)C(=O)COc3c(F)c(F)c(CO)c(F)c3F)cc12 [compound 2, N-((R)-3-(3-Fluorophenyl)-1-oxo-1-(((S)-3-oxo-1-((S)-2-oxopyrrolidin-3-yl)-4-(2,3,5,6-tetrafluoro-4-(hydroxymethyl)phenoxy)butan-2-yl)amino)propan-2-yl)-4-methoxy-1H-indole-2-carboxamide] | 4.67 | 4270 | 5.14 | 13500 | > 74100 | 21900 | > 50100 | – | – | – | – | – | – | hCTSL inhibition, IC50 range in words [2]: only micromolar inhibition; M^pro inhibition, IC50 range in words (SARS-CoV-2 M^pro): only micromolar inhibition; fold less active than 1 in the SARS-CoV-2 CPE reduction assay (SARS-CoV-2): ~169 fold |
| CCCCCCCC(=O)N[C@@H](Cc1cccc(F)c1)C(=O)N[C@@H](C[C@@H]1CCNC1=O)C(=O)COc1c(F)c(F)c(CO)c(F)c1F [compound 3, N-((S)-3-(3-Fluorophenyl)-1-oxo-1-(((S)-3-oxo-1-((S)-2-oxopyrrolidin-3-yl)-4-(2,3,5,6-tetrafluoro-4-(hydroxymethyl)phenoxy)butan-2-yl)amino)propan-2-yl)octanamide] | 7.39 | 11.5 | 7.92 | 75.9 | > 501 | 70.8 | – | 2.23 | 206 | 0.0041 | 0.0041 | 99.59 | – | – |
| CCCCCCCCCCCCCCCC(=O)N[C@@H](Cc1cccc(F)c1)C(=O)N[C@@H](C[C@@H]1CCNC1=O)C(=O)COc1c(F)c(F)c(CO)c(F)c1F [compound 4, N-((S)-3-(3-Fluorophenyl)-1-oxo-1-(((S)-3-oxo-1-((S)-2-oxopyrrolidin-3-yl)-4-(2,3,5,6-tetrafluoro-4-(hydroxymethyl)phenoxy)butan-2-yl)amino)propan-2-yl)palmitamide] | < 4.30 | 3800 | 5.11 | 10500 | > 25100 | 2240 | 5620 | – | 9.31 | – | – | – | – | hCTSL inhibition, IC50 range in words [2]: only micromolar inhibition; logD (physchem [6]): > 3.5; M^pro inhibition, IC50 range in words (SARS-CoV-2 M^pro): only micromolar inhibition |
| COc1cccc2[nH]c(C(=O)N[C@@H](Cc3cccc(F)c3)C(=O)N[C@@H](C[C@@H]3CC(=O)NC3=O)C(=O)COc3c(F)c(F)c(CO)c(F)c3F)cc12 [compound 6, N-((S)-1-(((S)-1-((R)-2,5-Dioxopyrrolidin-3-yl)-3-oxo-4-(2,3,5,6-tetrafluoro-4-(hydroxymethyl)phenoxy)butan-2-yl)amino)-3-(3-fluorophenyl)-1-oxopropan-2-yl)-4-methoxy-1H-indole-2-carboxamide] | 7.89 | 6.03 | 6.55 | 97.7 | > 25100 | 1910 | – | 3.08 | 156 | – | – | – | 20.9 (≈ 15 µg/mL) | Peak area (%) by LCMS, mouse liver microsomal stability assay of 1 ([10]; 0 h): 0%; Peak area (%) by LCMS, mouse liver microsomal stability assay of 1 ([10]; 5 min): 2.5%; Peak area (%) by LCMS, mouse liver microsomal stability assay of 1 ([10]; 0.25 h): 10.2%; Peak area (%) by LCMS, mouse liver microsomal stability assay of 1 ([10]; 0.5 h): 19.2%; Peak area (%) by LCMS, mouse liver microsomal stability assay of 1 ([10]; 0.75 h): 23.2%; Peak area (%) by LCMS, mouse liver microsomal stability assay of 1 ([10]; 1 h): 24.9% |
| COc1cccc2[nH]c(C(=O)N[C@@H](Cc3cccc(F)c3)C(=O)N[C@@H](C[C@@H]3CC(=O)NC3=O)C(=O)COc3c(F)c(F)c(C(C)O)c(F)c3F)cc12 (stereo partly drawn) [compound 9, N-((2S)-1-(((2S)-1-((R)-2,5-Dioxopyrrolidin-3-yl)-3-oxo-4-(2,3,5,6-tetrafluoro-4-(1-hydroxyethyl)phenoxy)butan-2-yl)amino)-3-(3-fluorophenyl)-1-oxopropan-2-yl)-4-methoxy-1H-indole-2-carboxamide] | 7.65 | 5.5 | 6.09 | 158 | > 10000 | 1200 | – | 2.6 | 134 | – | – | – | 6.33 (≈ 4.62 µg/mL) | – |
| COc1cccc2[nH]c(C(=O)N[C@@H](Cc3cccc(F)c3)C(=O)N[C@@H](C[C@@H]3CC(=O)NC3=O)C(=O)COc3c(F)c(F)c(C(C)(C)O)c(F)c3F)cc12 [compound 11] | 7.95 | 6.76 | 5.88 | 316 | > 5010 | 759 | 8910 | 2.03 | 124 | – | – | – | 0.88 (≈ 0.655 µg/mL) | fold less active than 1 in the SARS-CoV-2 CPE reduction assay (SARS-CoV-2): ~6 fold |
| COc1cccc2[nH]c(C(=O)N[C@@H](Cc3cccc(F)c3)C(=O)N[C@@H](CCn3cn[nH]c3=O)C(=O)COc3c(F)c(F)c(C(C)(C)O)c(F)c3F)cc12 [compound 13, N-((S)-3-(3-Fluorophenyl)-1-oxo-1-(((S)-2-oxo-5-(5-oxo-1,5-dihydro-4H-1,2,4-triazol-4-yl)-1-(2,3,5,6-tetrafluoro-4-(2-hydroxypropan-2-yl)phenoxy)pentan-3-yl)amino)propan-2-yl)-4-methoxy-1H-indole-2-carboxamide] | 8.71 | 295 | 6.68 | 23.4 | > 10000 | 1660 | – | 2.7 | 78.8 | – | – | – | 6.78 (≈ 5.05 µg/mL) | hepatocyte CLint at 1 µM (in vitro [7]; CLint (mouse hepatocytes + ritonavir 4:1)): 49.3 µL/min/1e6 cells; fraction unbound at 3 h, 800 µM (in vitro [8]; fraction bound (Fb)): 0.0031; fraction unbound at 3 h, 800 µM (in vitro [8]; fraction unbound (Fu)): 0.0028; half-life at 1 µM [12]: 22 min; IC50 [13]: < 6.92 nM |
| COc1cccc2[nH]c(C(=O)N[C@@H](Cc3cccc(F)c3)C(=O)N[C@@H](C[C@@H]3CCNC3=O)C(=O)COc3c(F)c(F)cc(F)c3F)cc12 [compound 15, reference compound] | 7.39 | 5.89 | 5.46 | 603 | > 1260 | 39.8 | – | 2.99 | 240 | 0.0043 | 0.0043 | 99.57 | 1.4 (≈ 0.942 µg/mL) | selectivity for M^pro over hCTSL (SARS-CoV-2 M^pro; biochemical assays): ~7 fold |
| COc1cccc2[nH]c(C(=O)N[C@@H](Cc3cccc(F)c3)C(=O)N[C@@H](C[C@@H]3CCNC3=O)C(=O)COc3c(F)c(F)c(F)c(F)c3F)cc12 [compound 16, reference compound] | 6.98 | 6.76 | 5.82 | 550 | > 251 | 39.8 | 676 | 2.95 | 154 | 0.0067 | 0.0067 | 99.33 | 4.09 (≈ 2.82 µg/mL) | selectivity for M^pro over hCTSL (SARS-CoV-2 M^pro): ~16 fold |
